Reference: US20250313563A1, “GLYCOGEN SYNTHASE KINASE 3 INHIBITORS AND USES THEREOF” (The Broad Institute, Inc., priority 2022, published 2025)
Like-named read-outs stand apart in the source and are kept apart here.

Columns and labels:
[1] = target: GSK3α (GST-full length GSK3α) (Homo sapiens (Human), UniProt P49840); test: GSK3α TR-FRET kinase assay; type: biochemical
In short: (§1)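 IC50 came from the normalized 665/615 nm TR-FRET ratio plotted against log compound concentration. The Tb-labelled pSer641 antibody and streptavidin-d2 detected phosphorylation of biotinylated S645-primed glycogen synthase peptide (200 nM) by 1 nM full-length GST-kinase. ATP was 4 μM for α, 2 μM for β, or 1 mM.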

[2] = target: GSK3b (GST-full length GSK3b) (Homo sapiens (Human), UniProt P49841); test: GSK3b TR-FRET kinase assay; type: biochemical
Sequence of GSK3b (GST-full length GSK3b) (P49841 whole entry): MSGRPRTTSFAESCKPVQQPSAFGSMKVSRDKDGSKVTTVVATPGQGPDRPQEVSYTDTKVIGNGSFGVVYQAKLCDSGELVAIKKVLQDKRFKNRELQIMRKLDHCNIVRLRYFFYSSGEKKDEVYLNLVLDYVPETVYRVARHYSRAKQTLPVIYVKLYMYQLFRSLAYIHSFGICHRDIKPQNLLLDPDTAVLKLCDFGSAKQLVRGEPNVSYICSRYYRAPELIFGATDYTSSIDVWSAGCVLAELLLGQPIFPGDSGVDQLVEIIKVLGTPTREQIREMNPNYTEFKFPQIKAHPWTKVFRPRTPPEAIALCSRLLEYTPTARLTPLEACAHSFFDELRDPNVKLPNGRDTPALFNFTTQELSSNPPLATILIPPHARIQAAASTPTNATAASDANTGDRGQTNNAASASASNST
In short: as §1

[3] = 1 nM GSK3α, 4 μM ATP, 30 minute preincubation, Table 16, read-out: GSK3-A TR-FRET BIOCHEMICAL (TR-FRET), IC50
[4] = 1 nM GSK3b, 2 μM ATP, 30 minute preincubation, Table 16, read-out: GSK3-B TR-FRET BIOCHEMICAL (TR-FRET), IC50
[5] = 1 nM GSK3α, 4 μM ATP, 30 minute preincubation, read-out: GSK3-A TR-FRET BIOCHEMICAL (TR-FRET), IC50
[6] = 1 nM GSK3b, 2 μM ATP, 30 minute preincubation, read-out: GSK3-B TR-FRET BIOCHEMICAL (TR-FRET), IC50
[7] = read-out: GSK3-A (TR-FRET 1 mM ATP), GMean, IC50, 1 mM ATP, geometric mean
[8] = read-out: GSK3-B (TR-FRET 1 mM ATP), GMean, IC50, 1 mM ATP, geometric mean

Sequence of GSK3α (GST-full length GSK3α) (P49840 whole entry): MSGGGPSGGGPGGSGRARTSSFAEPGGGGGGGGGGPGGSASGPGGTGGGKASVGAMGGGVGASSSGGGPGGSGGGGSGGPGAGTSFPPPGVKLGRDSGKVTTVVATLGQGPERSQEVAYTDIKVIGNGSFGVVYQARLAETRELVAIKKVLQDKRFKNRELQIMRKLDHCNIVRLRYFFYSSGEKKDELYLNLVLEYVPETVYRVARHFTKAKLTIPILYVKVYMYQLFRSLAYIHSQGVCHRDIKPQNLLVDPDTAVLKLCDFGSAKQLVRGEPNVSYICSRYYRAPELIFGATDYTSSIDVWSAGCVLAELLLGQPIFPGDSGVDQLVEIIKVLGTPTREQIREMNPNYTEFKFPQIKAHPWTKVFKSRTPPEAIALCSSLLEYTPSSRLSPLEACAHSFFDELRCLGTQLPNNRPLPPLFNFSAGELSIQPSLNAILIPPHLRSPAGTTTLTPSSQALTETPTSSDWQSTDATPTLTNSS

Row | IC50 [1, 3] [µM] | IC50 [2, 4] [µM] | IC50 [1, 5] [µM] | IC50 [2, 6] [µM] | Structure (SMILES) | also measured
1 | 1 to 5 | 1 to 5 | – | – | CC1(C)CC(=O)C2=C(C1)Nc1n[nH]cc1[C@@]21CCO[C@@H](C(C)(C)C)C1 [Compound 912113] | –
2 | – | – | > 5 | > 5 | CC1(C)CC(=O)C2=C(C1)Nc1n[nH]cc1C21CC2(COC2)C1 [Compound 912168] | –
3 | ≤ 0.1 | ≤ 0.1 | – | – | CCC1(c2cccc(S(=O)(=O)C(C)C)c2)C2=C(CC(C)(C)CC2=O)Nc2n[nH]cc21 (stereo not shown) [Compound 912169] | –
4 | 1 to 5 | > 5 | – | – | CC1(C)CC(=O)C2=C(C1)Nc1n[nH]cc1C21CS(=O)(=O)C1 [Compound 912170] | –
5 | – | – | – | – | CCC1(c2cccc(S(=O)(=O)C3CC3)c2)C2=C(CC(C)(C)CC2=O)Nc2n[nH]cc21 (stereo not shown) [Compound 912171] | IC50 [1, 7]: ≤ 0.1 µM; IC50 [2, 8]: 0.1 to 1 µM
6 | – | – | – | – | COC[C@H]1C[C@]2(C1)C1=C(CC(C)(C)CC1=O)Nc1n[nH]cc12 [Compound 912173] | IC50 ([1]; 1 nM GSK3α, 4 μM ATP, 30 minute preincubation, Table 16, read-out: GSK3-A TR-FRET BIOCHEMICAL (TR-FRET)): 0.1 to 1 µM; IC50 ([2]; 1 nM GSK3b, 2 μM ATP, 30 minute preincubation, Table 16, read-out: GSK3-B TR-FRET BIOCHEMICAL (TR-FRET)): 0.1 to 1 µM
7 | – | – | > 5 | > 5 | CC[C@@]1(c2cccc(C(F)(F)F)c2)C2=C(CCN(CC(F)(F)F)C2=O)Nc2n[nH]cc21 [Compound 912205] | –
8 | – | – | ≤ 0.1 | 0.1 to 1 | CCC1(c2cccc(C(F)(F)F)c2)C2=C(CCN(CC(F)(F)F)C2=O)Nc2n[nH]cc21 (stereo not shown) [Compound 912206] | –
9 | – | – | 1 to 5 | > 5 | CC1(C)CC(=O)C2=C(C1)Nc1n[nH]cc1C21CCC2(CCC(=O)N2C(=O)OC(C)(C)C)CC1 (stereo not shown) [Compound 912217] | –
10 | – | – | 0.1 to 1 | 1 to 5 | CCC1(c2cccc(C(F)(F)F)c2)C2=C(CCNC2=O)Nc2n[nH]cc21 (stereo not shown) [Compound 912622] | –
11 | – | – | > 5 | > 5 | CC[C@]1(c2cccc(C(F)(F)F)c2)C2=C(CCNC2=O)Nc2n[nH]cc21 [Compound 912668] | –
12 | – | – | 0.1 to 1 | 1 to 5 | CC1(C)CC(=O)C2=C(C1)Nc1n[nH]cc1C21COC2(CN(S(=O)(=O)c3ccccc3)C2)C1 (stereo not shown) [Compound 913002] | –
13 | – | – | > 5 | > 5 | CC[C@@]1(c2cccc(C(F)(F)F)c2)C2=C(CC(C)(C)NC2=O)Nc2n[nH]cc21 [Compound 913004] | –
14 | – | – | ≤ 0.1 | ≤ 0.1 | CCC1(c2cccc(C(F)(F)F)c2)C2=C(CC(C)(C)NC2=O)Nc2n[nH]cc21 (stereo not shown) [Compound 913006, 4-ethyl-7,7-dimethyl-4-(3-(trifluoromethyl)phenyl)-2,4,6,7,8,9-hexahydro-5H-pyrazolo[3,4-b][1,6]naphthyridin-5-one] | IC50 ([1]; GSK3-A (TR-FRET 1 mM ATP), GMean, IC50, 1 mM ATP, geometric mean): 0.1 to 1 µM; IC50 ([2]; GSK3-B (TR-FRET 1 mM ATP), GMean, IC50, 1 mM ATP, geometric mean): > 5 µM
15 | 0.1 to 1 | 0.1 to 1 | – | – | CCC1(c2cccc(-c3ccncc3F)c2)C2=C(CC(C)(C)CC2=O)Nc2n[nH]c(C)c21 (stereo not shown) [Compound 913017] | –
16 | ≤ 0.1 | ≤ 0.1 | – | – | CCC1(c2cccc(-c3ccnc(C)c3)c2)C2=C(CC(C)(C)CC2=O)Nc2n[nH]c(C)c21 (stereo not shown) [Compound 913018] | IC50 [1, 7]: 0.1 to 1 µM; IC50 [2, 8]: 1 to 5 µM
17 | ≤ 0.1 | ≤ 0.1 | – | – | CCC1(c2cccc(-c3ccnc(C(F)(F)F)c3)c2)C2=C(CC(C)(C)CC2=O)Nc2n[nH]c(C)c21 (stereo not shown) [Compound 913020] | –
18 | ≤ 0.1 | ≤ 0.1 | – | – | CC[C@@]1(c2cccc(-c3ccnc(N(C)C)c3)c2)C2=C(CC(C)(C)CC2=O)Nc2n[nH]c(C)c21 [Compound 913021] | –
19 | 0.1 to 1 | 1 to 5 | – | – | CCC1(c2cccc(-c3ccncc3C)c2)C2=C(CC(C)(C)CC2=O)Nc2n[nH]c(C)c21 (stereo not shown) [Compound 913022] | –
20 | – | – | – | – | CCC1(c2cccc(-c3ccnn3C)c2)C2=C(CC(C)(C)CC2=O)Nc2n[nH]c(C)c21 (stereo not shown) [Compound 913023] | IC50 [1, 7]: ≤ 0.1 µM; IC50 [2, 8]: 0.1 to 1 µM
21 | ≤ 0.1 | ≤ 0.1 | – | – | CCC1(c2cccc(-c3cn[nH]c3)c2)C2=C(CC(C)(C)CC2=O)Nc2n[nH]c(C)c21 (stereo not shown) [Compound 913025] | IC50 [1, 7]: ≤ 0.1 µM; IC50 [2, 8]: 0.1 to 1 µM
22 | 0.1 to 1 | 0.1 to 1 | – | – | CCC1(c2cccc(-c3c(C)nn(C)c3C)c2)C2=C(CC(C)(C)CC2=O)Nc2n[nH]c(C)c21 (stereo not shown) [Compound 913026] | –
23 | ≤ 0.1 | ≤ 0.1 | – | – | CCC1(c2cccc(-c3cnn(C4CC4)c3)c2)C2=C(CC(C)(C)CC2=O)Nc2n[nH]cc21 (stereo not shown) [Compound 913028] | –
